For one compound, MIC and IC50 results are on record in US7947719B2, “Biologically active compounds obtainable from Sorangium cellulosum” (Hemholtz-Zentrum fur Infektionsforschung GmbH, priority 2005, dated 2011).

Holding throughout (type): cell-based
The test system of test [1] is Escherichia coli (DMSZ 5347). Briefly: Minimal inhibitory concentration against micro-organisms. From the text: (§1) As an example for compounds according to the invention, Disorazole Z has been analyzed for biological activity following the methods as disclosed in Irschik et al. (The Sorangicins, novel and powerful inhibitors of eubacterial RNA polymerase isolated from myxobacteria, J. Antibiotics 40: 7-13 (1987)). The following minimal inhibitory concentrations against organisms were found: […]

Test [2] concerns Mucor hiemalis. The test is described as above.
Excerpt: as §1

Test [3] has as its system Staphylococcus aureus. The test is described as above.
Excerpt: as §1

The test system of test [4] is Pythium debaryanum. The description is as above. The conditions noted are these: Globisporangium debaryanum.
Excerpt: as §1

For test [5], the system named is Saccharomyces cerevisiae. The description is as above.
Excerpt: as §1

Test [6] concerns Botrytis cinerea. The description is as above.
Excerpt: as §1

The test system of test [7] is Rhodotorula glutinis. Described as above.
Excerpt: as §1

Test [8] concerns mouse fibroblast cell line L929 (ATCC CCL 1). Briefly: Toxicity against mouse fibroblast cell line L929. Conditions: L929 (ATCC CCL 1) mouse fibroblasts; read-out: inhibitory concentration IC50 (toxicity). How it is done:
The toxicity tested against the mouse fibroblast cell line L929 (ATCC CCL 1) according to Sasse et al. (J. Antibiotics 56:827-831 (2003)), an inhibitory concentration IC50 of 30 pg/mL was determined.

In brackets after ≈: the same amount, converted by molar mass.

As for `C/C=C/C(O)C(C)(C(=O)OC)C1C\C=C/C=C/C=C/c2nc(co2)C(=O)OC(C(C)(C(=O)OC)C(O)/C=C/C)C\C=C/C=C/C=C/c2nc(co2)C(=O)O1` (centres unmarked) [Disorazole Z], the minimum inhibitory concentration (MIC) – broadly, the lowest concentration found to suppress growth – was > 25 µg/mL in test [1]; > 6 µg/mL in test [2]; > 25 µg/mL in test [3]; 3 µg/mL (≈ 4.02 µM) in test [4]; > 6 µg/mL in test [5]; 6 µg/mL (≈ 8.03 µM) in test [6]. Further, inhibition of growth in test [7] (MIC) required 3 µg/mL (≈ 4.02 µM). In addition, in test [8], the IC50 was found to be 0.03 ng/mL (≈ 4.02e-05 µM).
